Test system: DRG axons
Experiment: IRES-driven myr-dEGFP Sindbis reporter in compartmented cultures with translation inhibitors
Format: cell-based, rat
Conditions: added for 48 hrs to the axonal compartment
Excerpt: FIGS. 1A-O are data showing that the compartmentalization of DRGs enables axon-specific manipulations and quantitative measurement using fluorescent probes. (A) Immunofluorescence analysis of 3 DIV DRG cultures+/−5-FdU. […] Scale bar, 50 μm. […] Scale bar, 50 μm. (C) Immunofluorescence analysis of compartmented cultures (montage micrographs). Retrogradely labeled (WGA-Alexa555, red) DRG axons fasciculate and grow under the 1 mm divider into the axon compartment. Axons defasciculate as they enter the axon compartment. Cell bodies (DAPI, blue) are restricted to the cell body compartment. Only WGA-Alexa555 labeled cell bodies are included in data sets, as they comprise the population of neurons extending axons across the divider. (D) Dissociated DRG neurons (5 DIV) in compartmented cultures were treated with NGF in either or both compartments. […] Numbers on bars represent n cells per condition. (E, F) DRG axons in compartmented cultures were infected with a Sindbis virus encoding myr-dEGFP under the control of an IRES by applying the virus to both cell body and axonal compartments. […] All compartments were maintained in identical NGF-containing media throughout the course of the experiment. […] Incomplete abolishment of FISH signals, relative to siRNA-treated axons, reflects residual alternatively-spliced CREBβ transcripts in these hypomorphic animals (Blendy et al., EMBO Journal 15, 1098-1106 (1996)). Additionally, axonal mRNAs are trafficked as mRNA-ribosome complexes, and impaired CREBβ mRNA-ribosome interactions due to the poor Kozak site (Blendy et al., EMBO Journal 15, 1098-1106 (1996)) in this transcript may lead to inefficient trafficking. Scale bar, 10 μm. (H) Quantification of data in (G). *p<0.0001. Numbers on bars represent n axons per condition. (I) Similar to the experiment in FIG. 4A, except equivalent numbers of cell bodies and axon terminals were used for Western blotting. DRG explants were cultured in Boyden chambers, and the upper compartment was incubated in 0 ng/ml NGF. The lower compartment was incubated in either 0 ng/ml NGF or 100 ng/ml NGF for 3 hours. Axon lysates (˜10^4 cells) were prepared from the underside of the membrane and analysed by Western blot. As in FIG. 4A, only CREB was detected in axons, and CREB localization in […] axons was dependent on NGF in the culture media. (J) DRG cultures were transfected with CREB siRNA and CREB levels were detected using a CREB antibody. […] Scale bar, 20 μm. (K) Quantification of data in (J). *p<0.001. Numbers on bars represent n axons per condition. (L) E15 DRG neuronal lysate (10 μg) was subjected to immunoblotting with the CST-9192 CREB antibody. (M) CREB was detected by immunofluorescence using CREB antibody sc-186 (see I, FIG. 4A, and Table S4). Scale bar 10 μm. […] (0) Quantification of data in (M). *p<0.0001. […]

Row | SMILES | myr-EGFP fluorescence in the axonal compartment | myr-EGFP levels in the cell body compartment
1 | COc1ccc(C[C@H]2NC[C@H](O)[C@H]2OC(C)=O)cc1 [anisomycin] | loss of myr-EGFP fluorescence | no significant effect
2 | C[C@@H]1C[C@@H]([C@H](O)CC2CC(=O)NC(=O)C2)C(=O)[C@@H](C)C1 [cycloheximide] | loss of myr-EGFP fluorescence | no significant effect

Reference: patent publication US12103952B2, “Methods for expressing proteins in axons” (Cornell University, priority 2010, dated 2024)
